# Data: patent publication US11879021B2, “Cyclic peptides and uses thereof” (UNIVERSITÉ DE MONTRÉAL, priority 2016, dated 2024)
# Target: T1, CD36 (Rattus norvegicus, UniProt Q07969)
# T1 construct: from tissue; host or cells: Heart (cardiac membranes) of Sprague Dawley rats from Charles River
# Assay: Competition binding of photoactivatable [125I]-Tyr-Bpa-Ala-Hexarelin to CD36 in rat cardiac membranes
# Details: competition with [125I]-Tyr-Bpa-Ala-Hexarelin, rat heart membranes; read-out: IC50 (μM), binding affinity for CD36
# Description: Hearts from Sprague Dawley rats (300-325 g) from Charles River were cut into small pieces and homogenized with a Polytron® at low speed, 3×15 sec in buffer A (10 mM NaHCO3, 5 mM NaN3, 10 μM Pefabloc®, 0.1 μM Aprotinin, 1 μM Pepstatin A, 1 μM Leupeptin, pH 7.0) at a concentration of […] of tissue. The homogenate was first centrifuged at 8,700×g for 20 min in a Sorvall® centrifuge and the supernatant was collected on ice. The pellet was resuspended and re-homogenized with a Glass-Teflon® Potter by 5 strokes. This homogenate was recentrifuged at 8,700×g for 10 min and the resulting supernatant was combined with the first collected supernatant. The combined supernatant was centrifuged at 35,000×g for 20 min. The pellet fraction obtained was resuspended in Buffer B (20 mM Tris-maleate, 0.6M KCl, pH 6.8) in a volume corresponding to 20 mL/g of fresh tissue using a glass homogenizer with a Teflon pestle. The resulting suspension was centrifuged again at 35,000×g for 60 min. and the pellet fraction obtained was resuspended in Buffer C (10 mM Tris/HCl buffer pH 7.4) and thoroughly homogenized in a glass with a Teflon® pestle (20 ml/g of fresh tissue). This suspension was submitted to another centrifugation at 35,000×g for 60 min. The collected pellet was resuspended in 50 mM Tris/HCl buffer pH 7.4) containing 2 mM EGTA in a final volume corresponding to 1-2 mL/g of fresh tissue. The membrane preparation obtained was frozen at −80° C. Protein concentration was determined using the bicinchoninic acid (BCA) method, employing BSA as standard.
# The reaction was started by adding 3 nmol of H2O2 for 5 min at room temperature. This step was repeated twice with a period of 5 min of incubation for each addition. The reaction was stopped by diluting the mixture with 1 mL of 0.1% TFA. The radioiodinated peptide was purified by HPLC on a reverse-phase Vydac® C18 column with a 60-min linear gradient from 20% to 50% of acetonitrile in 0.1% TFA. The eluted radiolabelled tracer was collected, aliquoted (50×10^6 cpm/fraction) and stored at −80° C.
# Binding studies with MPE-298 were done with increasing concentrations from 0.01 to 5 μM of competition ligands. Nonspecific binding was defined as binding not displaced by 50 μM corresponding peptide. All peptide containing solutions were diluted in Buffer B. Buffer A and B were degassed under vacuum, and used in capped tubes in order to minimize lipid peroxidation. Before the incubation period, all tubes were put under a low flow of nitrogen. All material was kept on ice and the binding assay was performed in darkness. After an incubation period of 60 min at 22° C. (vortexing every 15 min), membranes were submitted to irradiation with UV lamps (365 nm) for 15 min at 4° C. After centrifugation at 12,000×g for 15 minutes, the pellets were resuspended in 40 μl of sample buffer (62 mM Tris-HCl, pH 6.8, 2% SDS, 10% glycerol, 15% 2-mercaptoethanol, and 0.05% bromophenol blue), and boiled for 5 min prior to being subjected to electrophoresis. Proteins (50 μg/40 μl) were separated on a 7.5% SDS-PAGE Bio-Rad® Mini-Protean electrophoresis system (150 V for 1 h). The gels resulting from SDS/PAGE were fixed, colored in Coomassie Brilliant Blue R-250, dried, exposed to a storage phosphor intensifying screen (Amersham Biosciences), and analysed using a Typhoon® PhosphorImager (GE Healthcare Life Sciences®). […] The curves were analysed by using software package (Graphpad® prism version 7.0).
# T1 sequence (Q07969 whole entry): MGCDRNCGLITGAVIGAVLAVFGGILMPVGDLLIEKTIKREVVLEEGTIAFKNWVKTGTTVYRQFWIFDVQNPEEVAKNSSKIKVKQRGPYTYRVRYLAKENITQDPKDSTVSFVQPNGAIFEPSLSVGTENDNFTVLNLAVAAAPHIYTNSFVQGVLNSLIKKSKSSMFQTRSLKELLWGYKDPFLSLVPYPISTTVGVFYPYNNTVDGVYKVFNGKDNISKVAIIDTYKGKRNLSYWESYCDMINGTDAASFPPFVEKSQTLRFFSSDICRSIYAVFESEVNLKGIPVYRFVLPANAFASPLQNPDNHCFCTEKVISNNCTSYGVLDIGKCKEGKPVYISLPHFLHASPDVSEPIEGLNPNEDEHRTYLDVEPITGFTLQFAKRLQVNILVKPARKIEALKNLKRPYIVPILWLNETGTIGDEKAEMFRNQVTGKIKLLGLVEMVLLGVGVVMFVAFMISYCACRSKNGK
smiles,measurement,value
C=CCN1CC#CCN(NC(=O)[C@H](C)N)C(=O)N[C@H](Cc2c[nH]c3ccccc23)C(=O)N[C@@H](C)C(=O)N[C@@H](Cc2c[nH]c3ccccc23)C(=O)N[C@H](Cc2ccccc2)C(=O)N[C@H](C(N)=O)CCCC1 [MPE-298],IC50,0.07 µM
